Data from patent US4515806A, “Furan derivatives and addition salts thereof pharmaceutical compositions and the therapeutical applications thereof” (priority 1982, dated 1985).
Where two headings read alike, the source gives them in different places.

Tests used:
histamine H2 receptors = target: T1, histamine H2 receptors (Rattus norvegicus, UniProt P25102); details: for EC50: read-out: effective concentration for producing a 50% antagonism of the histamine response (EC50); for inhibition at 0.0434 µM / inhibition at 0.434 µM / inhibition at 4.34 µM / inhibition at 43.4 µM: rat, read-out: Antagonism (% reduction) of the histamine induced response in KCl contracted rat uterus
T1 construct: the uterine horn was removed and suspended in a De Jalon solution in an organ bath; from tissue; host or cells: rat uterine horn (rats in estrus, stilbestrol-treated)
Description: Rats in estrus were used and were administered 100 mcg of stilbestrol by intramuscular (i.m.) injection 30 hours before removing the uterus. On the day of the experiment, the uterine horn was removed and suspended in a De Jalon solution in an organ bath, held at 28° C. and aerated with a flow of 95% O2 and 5% CO2. Thereafter a sustained uterine contraction was induced by the addition of a KCl solution to provide a concentration in the organ bath of 4.2 mg/ml, namely, 10 times that of the De Jalon serum. The uterus was caused to relax with the addition of the amount of histamine required to obtain a good response.

gastric juices [1] = test: Ligature of pylorus, intravenous treatment (Table B-1); type: in vivo, Male Wistar rats; details: for Volume of gastric juice, percentage decrease relative to control / pH of gastric juice, percentage increase relative to control / Total acidity (titration with 0,1N NaOH), percentage decrease relative to control: 10 mg/kg i.v., 3 h after ligature
Description: (§1) The method of […] et al. (J. Pharmac. Exp. […] Male Wistar rats, weighing from 250 to 300 grams were used. […] The rats were anesthetised with ethyl ether, a laparotomy was performed and the pylorus was ligatured. The abdominal incision was then sewn. Treatment was effected: (B-1) intravenously, through the femoral vein. (B-2) intraduodenally, prior to sewing the abdominal incision. Three hours after ligature of the pylorus, the volumen of gastric juices was measured, the pH was determined by a Beckman Century SS-1 pH-meter.

gastric juices [2] = test: Ligature of pylorus, intraduodenal treatment (Table B-2); type: in vivo, Male Wistar rats
Description: as §1

Solubility (in words) = type: physicochemical
rats = test: Acute toxicity in rats
in vivo = details: mouse, iv
[3] = 1 mg/kg intraduodenal, lot of 4 rats
[4] = 1 mg/kg intraduodenal, lot of 5 rats
[5] = 3 mg/kg intraduodenal, 4 or 5 rats
[6] = 10 mg/kg intraduodenal, first lot (4 or 5 rats)
[7] = 10 mg/kg intraduodenal, lot of 8 rats
[8] = 10 mg/kg intraduodenal, second lot (4 or 5 rats)

T1 sequence (P25102 whole entry): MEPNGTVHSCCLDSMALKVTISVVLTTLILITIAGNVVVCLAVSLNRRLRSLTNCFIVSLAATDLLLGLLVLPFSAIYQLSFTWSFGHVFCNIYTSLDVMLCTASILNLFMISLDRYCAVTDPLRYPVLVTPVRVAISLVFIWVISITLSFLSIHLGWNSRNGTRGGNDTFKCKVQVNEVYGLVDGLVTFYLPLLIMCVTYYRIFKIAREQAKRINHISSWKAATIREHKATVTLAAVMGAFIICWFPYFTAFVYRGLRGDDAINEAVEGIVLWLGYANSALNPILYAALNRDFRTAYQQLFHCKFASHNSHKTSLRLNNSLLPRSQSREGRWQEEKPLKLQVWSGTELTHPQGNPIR

| SMILES | inhibition at 0.0434 µM (histamine H2 receptors) | inhibition at 0.434 µM (histamine H2 receptors) | inhibition at 4.34 µM (histamine H2 receptors) | inhibition at 43.4 µM (histamine H2 receptors) | Volume of gastric juice, percentage decrease relative to control (gastric juices [1]; first lot (2 or 3 rats)) | pH of gastric juice, percentage increase relative to control (gastric juices [1]; first lot (2 or 3 rats)) | Total acidity (titration with 0,1N NaOH), percentage decrease relative to control (gastric juices [1]; lot of 5 rats) | Volume of gastric juice, percentage decrease relative to control (gastric juices [1]; lot of 5 rats) | Total acidity (titration with 0,1N NaOH), percentage decrease relative to control (gastric juices [1]; lot of 8 rats) | Volume of gastric juice, percentage decrease relative to control (gastric juices [1]; lot of 8 rats) | pH of gastric juice, percentage increase relative to control (gastric juices [1]; lot of 8 rats) | Total acidity (titration with 0,1N NaOH), percentage decrease relative to control (gastric juices [2]; [3]) | Volume of gastric juice, percentage decrease relative to control (gastric juices [2]; [3]) | pH of gastric juice, percentage increase relative to control (gastric juices [2]; [3]) | Total acidity (titration with 0,1N NaOH), percentage decrease relative to control (gastric juices [2]; [5]) | Volume of gastric juice, percentage decrease relative to control (gastric juices [2]; [5]) | pH of gastric juice, percentage increase relative to control (gastric juices [2]; [5]) | Total acidity (titration with 0,1N NaOH), percentage decrease relative to control (gastric juices [2]; [6]) | Volume of gastric juice, percentage decrease relative to control (gastric juices [2]; [6]) | solubility (Solubility (in words); methanol) | other results |
| --- | --- | --- | --- | --- | --- | --- | --- | --- | --- | --- | --- | --- | --- | --- | --- | --- | --- | --- | --- | --- | --- |
| CNC(=C[N+](=O)[O-])NCCSCc1ccc(CN(C)C)o1 [Ranitidine, ranitidine] | 0% | 20% | 42.2% | 73.8% | 68.1% | 200.8% | 81.8% | 61.4% | 72.7% | 21% | 104.2% | 38% | 46.2% | 17% | 47% | 5% | 46% | 66% | 30% | – | EC50 (histamine H2 receptors; rat uterus, KCl contracted): 8.25 µM; pH of gastric juice, percentage increase relative to control (gastric juices [1]; lot of 5 rats): 88.5%; Total acidity (titration with 0,1N NaOH), percentage decrease relative to control (gastric juices [2]; [4]): 18%; Volume of gastric juice, percentage increase relative to control (gastric juices [2]; [4]): 6%; pH of gastric juice, percentage increase relative to control (gastric juices [2]; [4]): 60%; pH of gastric juice, percentage increase relative to control (gastric juices [2]; [6]): 95%; Total acidity (titration with 0,1N NaOH), percentage decrease relative to control (gastric juices [2]; [7]): 50%; Volume of gastric juice, percentage decrease relative to control (gastric juices [2]; [7]): 12%; pH of gastric juice, percentage increase relative to control (gastric juices [2]; [7]): 97.4%; Total acidity (titration with 0,1N NaOH), percentage decrease relative to control (gastric juices [2]; [8]): 75%; Volume of gastric juice, percentage decrease relative to control (gastric juices [2]; [8]): 58%; pH of gastric juice, percentage increase relative to control (gastric juices [2]; [8]): 202%; Total acidity (titration with 0,1N NaOH), percentage decrease relative to control (gastric juices [2]; 25 mg/kg intraduodenal, 5 rats): 83%; Volume of gastric juice, percentage decrease relative to control (gastric juices [2]; 25 mg/kg intraduodenal, 5 rats): 55%; pH of gastric juice, percentage increase relative to control (gastric juices [2]; 25 mg/kg intraduodenal, 5 rats): 210% |
| NCCc1c[nH]cn1 [histamine] | – | – | – | – | – | – | – | – | – | – | – | – | – | – | – | – | – | – | – | – | inhibition at 54.3 µM (histamine H2 receptors; read-out: inhibition of the contraction caused by KCl): 74.5% |
| CN(C)Cc1ccc(CSCCNC(=C[N+](=O)[O-])NCCO)o1.Cl [Example 1, (b), N-[2-[[(5-[(dimethylamino)methyl]-2-furanyl)methyl]thio]ethyl]-N'-(2-hydroxyethyl)-2-nitro-1,1-ethenediamine hydrochloride] | 0% | 22.2% | 47.3% | 81.8% | – | – | – | – | – | – | – | – | – | – | – | – | – | – | – | soluble | activity compared with ranitidine (histamine H2 receptors; rat uterus H2 receptors): more active than ranitidine; EC50 (histamine H2 receptors): 5.5 µM; acute toxicity (mice): low; activity (reduction in volume, increase in pH of gastric juice) (gastric juices [1]; intravenous): very high; activity compared with cimetidine (gastric juices [1]; intravenous): more active than cimetidine; activity compared with ranitidine (gastric juices [1]; intravenous): rather higher; solubility (Solubility (in words); water): soluble; acute toxicity (rats): low; activity (reduction in volume, increase in pH of gastric juice) (gastric juices [2]; intraduodenal): very high; activity compared with cimetidine (gastric juices [2]; intraduodenal): more active than cimetidine; activity compared with ranitidine (gastric juices [2]; intraduodenal): practically the same activity; LD50 (in vivo): 200 mg/kg |
| CN/C(=N/CCSCc1nc[nH]c1C)NC#N [Cimetidine, cimetidine] | – | – | – | – | 41.0% | 50.4% | 11.7% | 23.2% | 52.7% | 7.3% | 64.9% | 48% | 14% | 46% | 48% | 23% | 29% | 84% | 28% | – | pH of gastric juice, percentage increase relative to control (gastric juices [2]; [6]): 50%; Total acidity (titration with 0,1N NaOH), percentage decrease relative to control (gastric juices [2]; [7]): 40%; Volume of gastric juice, percentage decrease relative to control (gastric juices [2]; [7]): 6.6%; pH of gastric juice, percentage increase relative to control (gastric juices [2]; [7]): 100%; Total acidity (titration with 0,1N NaOH), percentage decrease relative to control (gastric juices [2]; [8]): 82%; Volume of gastric juice, percentage decrease relative to control (gastric juices [2]; [8]): 51%; pH of gastric juice, percentage increase relative to control (gastric juices [2]; [8]): 178%; Total acidity (titration with 0,1N NaOH), percentage decrease relative to control (gastric juices [2]; 25 mg/kg intraduodenal, 5 rats): 51.5%; Volume of gastric juice, percentage decrease relative to control (gastric juices [2]; 25 mg/kg intraduodenal, 5 rats): 35.4%; pH of gastric juice, percentage increase relative to control (gastric juices [2]; 25 mg/kg intraduodenal, 5 rats): 110% |
| O=[N+]([O-])C=C(NCCO)NCCO [Example 2, N,N'-bis(2-hydroxyethyl)-2-nitro-1,1-ethenediamine] | – | – | – | – | – | – | – | – | – | – | – | – | – | – | – | – | – | – | – | slightly soluble | solubility (Solubility (in words); ethanol): slightly soluble; solubility (Solubility (in words); water): soluble |
| CN(C)Cc1ccc(CSCCNC(=C[N+](=O)[O-])NCCO)o1 [Example 1, (a), N-[2-[[(5-[(dimethylamino)methyl]-2-furanyl)methyl]thio]ethyl]-N'-(2-hydroxyethyl)-2-nitro-1,1-ethenediamine] | – | – | – | – | – | – | – | – | – | – | – | – | – | – | – | – | – | – | – | soluble | solubility (Solubility (in words); chloroform): soluble |
